Measurements from US5436261A, “Benzospiroalkene heterocyclic compounds” (Adir et Compagnie, priority 1993, dated 1995).
pEC50: −log10 of the molar value. Structures can show the parent of a compound that is named as a salt.

Legend:
dog saphenous veins = assay: In vitro study on dog saphenous veins (contraction); assay type: cell-based, dog (mongrel); details: Canis lupus familiaris, dog saphenous vein rings; for pEC50: 37C, cumulative doses; for Emax: relative to maximum effect of 100 mM KCl, read-out: VEIN Max
Description: (§1) In vitro study on dog femorai arteries and saphenous veins
(§2) The technique used is based on that described by FOWLER et al., (J. Pharmacol. Exp. Ther., 229, 712-718, 1984). Male or female mongrel dogs weighing approximately 15-25 kg were used as a source of organs. The animals are anesthetized with pentobarbital (30 mg/kg intravenously). The legs are incised and the vessels removed. They are placed in Krebs-Ringer fluid (118 mM NaCl; 25 mM NaHCO3; 10mM glucose; 4.7 mM KCl; 1.25 mM CaCl2; 1.19 mM MgSO4; 1.14 mM KH2 PO4) at room temperature and a stream of carbogen (95% O2, 5% CO2) is bubbled through. The fat is then carefully removed from these vessels, which are thereafter cut into rings 2 mm wide and mounted under a baseline tension of 4 g (femoral arteries) or 1 g (saphenous veins) in tanks thermostated at 37C containing Krebs-Ringer fluid with a stream of carbogen constantly bubbled through. A lower hook constitutes the fixed point, while the upper hook is connected to an isometric force gauge. The variations in tension are digitized, stored on disk and processed by a computer system. After mounting, the organs are left undisturbed for 90 minutes, rinsing being performed every 30 min. After readjustment of the baseline tension, a contraction is induced with a single dose of KCl (100 mM). After stabilization, washing and return to the baseline, a contraction is induced by a single dose of phenylephrine (submaximal concentrations) in order to regularize the following contractions. After washing and return to the baseline, an effect/concentration curve is plotted by adding cumulative doses of agonist (the spacing between the doses is on a semilogarithmic scale). This experiment enables the 50% effective concentration (EC50) to be calculated in the following manner: the tension values are first converted to percentages relative to the maximum effect produced by 100 mM KCl. This EC50 is determined by nonlinear regression by the SIMPLEX method (M. S. CACECI, Byte, 340-362, 1984), calculated according to the L. MICHAELIS and M. L. MENTEN model of the law of mass action (Blochem. Zeitschrift, 49, 333-369, 1913). E=(Emax*C^n)(EC^n +C^n) with E=effects; Emax=maximum effect; C=concentration; EC=EC50; n=HILL's number

pithed rats = assay: In vivo study in pithed rats, blood pressure; parameters: species or system rat (Sprague-Dawley); details: Rattus norvegicus, iv, tertatolol pretreated, without prazosin or yohimbine, read-out: C20 Control (concentration that increases the pressure by 20 mm Hg)
Source text: (§3) In vivo study in PITBED RATS
(§4) Male Sprague-Dawley rats (300-400 g) are anesthetized with ether. The trachea is canulated, the spinal cord is destroyed by means of a steel rod and the animal is immediately placed under artificial respiration. The vagal nerves are sectioned. The carotid arteries are ligated; a catheter is placed in one and is used to record blood pressure. A further three catheters are placed in the jugular veins and the veins of the penis and are used for injections. The animals'temperature is maintained at 36° C. The animal is pretreated by an injection of tertatolol ([…]). The animal is also pretreated 10 minutes later with prazosin ([…]) or yohimbine (1 mg/kg) when it is desired to determine the alpha1 --or alpha2 -adrenergic properties of the product. Ten minutes later, increasing cumulative doses of the product are injected every 20 seconds. Variations in blood pressure are detected using a Statham P23XL pressure cell and are recorded. The pressure values are expressed in mmHg. This experiment enables the concentration that increases the pressure by 20 mm Hg (C2.sbsb.0) to be calculated by non-linear regression according to the Michaelis and Menten model of the law of mass action, as described above. The maximum effect obtained is then converted to a percentage relative to the maximum effect produced by phenylephrine. The alpha1 - or alpha2 -adrenergic components of the product are assessed by means of the ratio of the C2.sbsb.0 values obtained in the presence of prazosin or yohimbine to the values obtained in the absence of these antagonists. In pithed rats, the products of the invention produce prazosin- and yohimbine-sensitive hypertension.

alpha2-adrenergic = assay: In vivo study in pithed rats, pretreatment with yohimbine (alpha2-adrenergic component); parameters: species or system rat (Sprague-Dawley); details: yohimbine (1 mg/kg) pretreatment
Source text: as §3, §4

dog femoral arteries = assay: In vitro study on dog femoral arteries (contraction); assay type: cell-based, dog (mongrel); details: Canis lupus familiaris, dog femoral artery rings; for pEC50: 37C, cumulative doses; for Emax: relative to maximum effect of 100 mM KCl, read-out: ARTERY Max
Description: as §1, §2

carotid blood flow = assay: In vivo study of carotid blood flow in anesthetized dogs; parameters: species or system dog; dose or concentration left out as unconfirmed; details: i.v., n-6
Description: In vivo study of carotid blood flow in anesthetized dogs
Dogs (12-18kg) are anesthetized with pentobarbital (30mg/kg i.v.). Anesthesia is then maintained by a perfusion of 0.8 ml/h of 6% pentobarbital. The animals are placed under assisted respiration and their temperature is maintained at 37C (Harvard thermostated blanket). Blood pressure and heart rate are measured by means of a Millar probe in the fernoral artery or brachial artery, via a transducer and a Gould biotach. The blood flow in the carotid arteries is recorded by means of a Gould SP2202 electromagnetic flow meter.

pEC50 (dog saphenous veins) | pEC50 (dog femoral arteries) | SMILES | Emax (dog saphenous veins) [%] | ED (20 mm Hg) (pithed rats) [mg/kg] | Ratio C20 treated/C20 control, Yohimbine (alpha2-adrenergic) | Emax (dog femoral arteries) [%] | fall in carotid blood flow (carotid blood flow) [%]
5.89 | 5.23 | C1=NC2(CCc3ccccc3C2)CN1 (centres unmarked) [Example 1, Spiro[(1,3-diaza-1-cyclopentene)-5,2'-(1',2',3',4'-tetrahydronaphthalene)]benzenesulfonate] | 98 | 0.004 | 4.7 | 19 | 
6.80 | 4.15 | Cc1ccc2c(c1)CC1(CC2)CNC=N1 (centres unmarked) [Example 24, Spiro[(1,3-diaza-1-cyclopentene)-5,2'-(7'-methyl-1',2',3',4'-tetrahydronaphthalene)]fumarate] | 57 | 0.03 | 1.5 | 8 | 
5.68 | 4.89 | Cc1ccc2c(c1)CCC1(CNC=N1)C2 (centres unmarked) [Example 8, Spiro[(1,3-diaza-1-cyclopentene)-5,2'-(6'-methyl-1',2',3',4'-tetrahydronaphthalene)]fumarate] | 44 |  |  | 12 | 
5.80 | 6.30 | C1=NC2(CN1)Cc1cccc3cccc(c13)C2 [Example 31, Spiro[(1,3-diaza-1-cyclopentene)-5,2'-(2,3'-dihydrophenalene)] 1/2 fumarate] | 44 |  |  | 10 | 

Second part, the compound before the results:

SMILES | pEC50 (dog saphenous veins) | pEC50 (dog femoral arteries) | Emax (dog saphenous veins) [%] | ED (20 mm Hg) (pithed rats) [mg/kg] | Ratio C20 treated/C20 control, Yohimbine (alpha2-adrenergic) | Emax (dog femoral arteries) [%] | fall in carotid blood flow (carotid blood flow) [%]
CC(C)Oc1ccc2c(c1)CCC1(CNC=N1)C2 (centres unmarked) [Example 5, Spiro[(1,3-diaza-1-cyclopentene)-5,2'-(6'-isopropyloxy-1',2',3',440-tetrahydronaphthalene)]fumarate] |  |  |  | 0.068 | 66 |  | 
Clc1cc(Cl)c2c(c1)CC1(CC2)CNC=N1 (centres unmarked) [Example 17, Spiro[(1,3-diaza-1-cyclopentene)-5,2'-(5',7'-dichloro-1',2',3',4'-tetrahydronaphthalene)]fumarate] | 5.72 | 4.62 | 44 |  |  | 10 | 
COc1ccc2c(c1OC)CCC1(CNC=N1)C2 (centres unmarked) [Example 7, Spiro[(1,3-diaza-1-cyclopentene)-5,2'-(5',6'-dimethoxy-1',2',3',4'-tetrahydronaphthalene)]fumarate] |  |  |  | 0.137 | 2.4 |  | 
COc1cc2c(cc1O)CCC1(CNC=N1)C2 (centres unmarked) [Example 3, Spiro[(1,3-diaza-1-cyciopentene)-5,2'-(6'-hydroxy-7'-methoxy-1',2',3',4'-tetrahydronaphthalene)]fumarate] |  |  |  | 0.0009 | 2.9 |  | 
Cc1ccc2c(c1)C[C@@]1(CC2)CNC=N1 [Example 46, (S)-Spiro[(1,3-diaza-1-cyclopentene)-5,2'-(7'-methyl-1',2',3',4'-tetrahydronaphthalene)]fumarate] | 5.73 | 4.82 | 48 | 0.0068 | 3.4 | 36 | 62±4
COc1cc(C)cc2c1CCC1(CNC=N1)C2 (centres unmarked) [Example 9, Spiro[(1,3-diaza-1-cyciopentene)-5,2'-(5'-methoxy-7'-methyl-1',2',3',4'-tetrahydronaphthalene) ]fumarate] | 5.41 | 6.10 | 81 |  |  | 60 | 
